From patent US12213978B2, “Madrasin-derivative compounds, composition and uses thereof for treating cancer” (INSTITUT GUSTAVE ROUSSY, priority 2018, dated 2025)

Key:
Solubility in water = format: physicochemical
[1] = tested on: B16F10 melanoma cells expressing the intron-derived SL8 antigen; assay: T-cell assay: B3Z specific T-cell activation by B16F10 cells expressing the intron-derived SL8 antigen; format: cell-based, mouse; conditions: B16F10, 5 μM or 10 μM, dose dependent
Method: (§1) MCA205 mouse sarcoma cell line is cultured at 37° C. under 5% CO2 in RPMI 1640 medium (Life Technologies) in the presence of 1% glutamine, 1% sodium pyruvate, 1% non-essential amino-acids, 1% penicillin/streptomycin and 10% FBS (Life Technologies). B16F10 mouse melanoma cell line is cultured at 37° C. under 5% CO2 in DMEM medium (Life Technologies) containing 1% glutamine, 1% penicillin/streptomycin and 10% FCS under standard conditions. Stable MCA205-Globin-SL8-intron cell line are cultured under the same condition as MCA205 cell line with additional 500 μg/ml G418 (Life Technologies) for selection. Stable B16F10-Globin-SL8-intron cell line are cultured under the same condition as B16F10 cell line with additional 500 μg/ml G418 (Life Technologies) for selection. The SL8/Kb-specific (B3Z) T-cell reporter hybridoma are cultured at 37° C. under 5% CO2 in RPMI 1640 medium (Life Technologies) in the presence of 1% L-glutamine, 1% penicillin/streptomycin, 50 μM β-mercaptoéthanol and 10% FCS.
(§2) MCA205 and B16F10 mouse cell lines are transfected with the plasmid YFP-Globin-SL8-intron or with the PCDNA3 empty plasmid (negative control) with the transfection reagent jetPRIME (Ozyme) or GeneJuice (Millipore) respectively according to each manufacturer protocol. Twenty-four hours after transfection, cells are treated with different doses of Madrasin (Sigma SML 1409), Madra.HCl (3·HCl) or the different compounds herein cited. Cells are then washed three times with PBS 1× and 5.10^4 tumor cells are co-cultured with 1.10^5 B3Z hybridoma in a 96-well plate. In positive control wells, 4 μg/ml of synthetic peptide SL8 is added. Cells are then incubated overnight at 37° C. with 5% CO2. The plate is centrifuged at 1200 rpm for 5 min, cells are washed twice with PBS 1× and lysed for 5 min at 4° C. under shaking in 0.2% TritonX-100, 0.2% DTT, 0.5M K2HPO4, 0.5M KH2PO4. The lysate is centrifuged at 3000 rpm for 10 min and the supernatant is transferred to a 96-well optiplate (OptiPlaque-96, PerkinElmer). A revelation buffer containing 10 mM MgCl2, 11.2 mM β-mercaptoethanol, 0.0015% IGEPAL® CA-630 and 40 μM 4-Methylumbelliferyl β-D-Galactopyranoside (MUG) in PBS is added and the plate is incubated at room temperature for 3 hours. Finally, the β-galactosidase activity is measured using the FLUOstar OPTIMA (BMG LABTECH Gmbh, 30 Offenburg, Germany). Results are expressed as mean±SEM. *P<0.05, **P<0.01, ***P<0.001 (unpaired student t test).

[2] = tested on: MCA205 sarcoma cells expressing the intron-derived SL8 antigen; assay: T-cell assay: B3Z specific T-cell activation by MCA205 cells expressing the intron-derived SL8 antigen; format: cell-based, mouse; conditions: MCA205, 5 μM or 10 μM, dose dependent
Method: as §1, §2

COc1ccc2c(C)nc(Nc3nc(C)c(C)c(=O)[nH]3)nc2c1 [Madrasin, 2-((7-Methoxy-4-methylquinazolin-2-yl)amino)-5,6-dimethylpyrimidin-4(3H)-one]
solubility in water (Solubility in water): insoluble in water
PTPs-dependent antigen presentation (B3Z T-cell activation) [1]: increase
PTPs-dependent antigen presentation (B3Z T-cell activation) [2]: increase
